How the values were obtained:
[1] = system: polyamine transporter (PATr); assay: Polyamine transport (PAT) inhibition assay in MDA-MB-231 cells; format: cell-based, human
Description: (§1) In a conventional radiometric assay, the cells are incubated under growth conditions with [5,8-^14C]spermine in serum-free medium for varying intervals. Cells are plated at a known density in 24 well plates in standard tissue culture medium and allowed to adhere and grow for 15–96 hours. Due to the low signal of the radiolabel in this assay, 96 or […] well microplates cannot be used in this assay, creating a major bottleneck for throughput. Cell numbers are determined, and the plate is placed in a temperature controlled system at 37° C. Aminoguanidine is added to the medium to a final concentration of 1 mM. […] The assay is initiated by the mixing of the inhibitor and radioligand. The cells are incubated for an interval of about 1–60 minutes depending on cell type. The assay is terminated by removing the medium and cooling the plates to 4° C. The cells are then washed with cold medium three times, dissolved in 0.1% sodium dodecylsulfate, and the radioactivity in solution is determined by scintillation counting.
Therefore, the growth assay and a kinetic transport assay have been used to validate transport inhibition. […]

cultured cells = assay: Fluorescent microscopic analysis of monodansylspermine uptake; format: cell-based
Description: Cells were plated in a sterile chambered slide and grown for 15–48 hours to assure adherence of cells to the slide. The medium was removed and replaced with fresh medium containing 1 μM MDS for a 10 minute incubation period at 37° C. The medium was then removed and the cells washed 3 times with phosphate buffered saline. Glycerol (50% v/v) in a volume of […] was added to the chamber, and the slide was removed and covered with a cover slip.
Using a fluorescence microscope with filters set for excitation at 340 nm and emission at 530 nm, the slide was observed under normal light and with fluorescence. Uptake of the dansylated spermine was observed microscopically and recorded on photograph.

[2] = system: polyamine transporter (PATr); assay: Radiometric polyamine transport (PAT) assay in A172 cells; format: cell-based
Description: as §1, with “In a conventional radiometric assay, the cells are incubated under growth conditions with [5,8-^14C]spermine in serum-free medium for varying intervals.” left out

[3] = system: T-cell acute lymphoblastic leukemias (ALL), glioblastomas, prostate, and colon cell lines; assay: In vitro test in combination with ODC inhibitors against several human cancer cell lines; format: cell-based
Description: DACS was tested in vitro in combination with ODC inhibitors against several human cancer cell lines. These include T-cell acute lymphoblastic leukemias (ALL), glioblastomas, prostate, and colon cell lines.

[4] = system: MDA-MB-231 human breast carcinoma cells; assay: Growth assay of MDA-MB-231 cells with and without ODC inhibitor (DFMO), 1 μM spermidine; format: cell-based; conditions: for R: ratio of the IC50 in the absence of DFMO over the IC50 in the presence of DFMO, MDA growth assay
Description: The ratio, R is the IC50 for […] relative to the IC50 for the polyamine analogue combined with an ODC inhibitor. This value of R, indicates the relative level of “synergism” between the polyamine analogue and ODC inhibitor.

[5] = target: spermidine/spermine acetyltransferase (SSAT) (Homo sapiens, UniProt P21673); assay: Spermidine/spermine acetyltransferase (SSAT) enzyme assay; format: biochemical; conditions: varying concentrations; 1 mM spermidine, 1 mM 14C-Acetyl CoA, pH 7.8
Chain of spermidine/spermine acetyltransferase (SSAT) (P21673 whole entry, species assumed): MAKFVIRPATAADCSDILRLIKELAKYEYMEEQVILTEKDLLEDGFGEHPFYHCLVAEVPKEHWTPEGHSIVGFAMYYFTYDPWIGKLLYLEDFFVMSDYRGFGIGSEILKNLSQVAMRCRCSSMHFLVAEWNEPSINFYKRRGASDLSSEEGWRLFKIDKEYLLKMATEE
Description: A study was conducted to determine whether the compositions of the present invention, designed as PAT inhibitors, had other activities on the PA system. Specifically, the ability of DACS to inhibit an enzyme involved in PA recycling was evaluated. The method used was as described in Casero, R. A. et al., Biochem. J270:615–620 (1990) hereby incorporated by reference in its entirety. This assay measures the incorporation of ^14C-labeled acetyl CoA into spermidine to form acetylspermidine. Varying concentrations of DACS were added to a reaction mixture containing HEPES buffer, pH 7.8, 1 mM spermidine, and 1 mM ^14C-Acetyl CoA. The product is isolated by binding to phosphocellulose filter paper and the extent of reaction is determined by scintillation counting.

[6] = system: polyamine transporter (PATr); assay: Polyamine transport (PAT) inhibition assay in MDA-MB-231 cells; format: cell-based, human; remark: listed apart in the source
cancer cells = conditions: cited from earlier work
[7] = system: murine L1210 leukemia cells; conditions: cited from earlier work
neoplastic vessels = conditions: one month of treatment, humans with cervical interepithelial neoplasia; cited from earlier work
[8] = parallel library products, purity estimated greater than 80%, read-out: Ki μM, Inhibition of the Polyamine Transporter in MDA-MB-231 Cell Line
[9] = MDA-MB-231 cell PATr, read-out: Ki for the PATr

## CC1(C)C2CCC1(CS(=O)(=O)NCCCNCCCCNCCCN)C(=O)C2 (stereo not shown)
[1]; [8]
  Ki: > 10 µM

## NCCCNCCCCNCCCNS(=O)(=O)c1ccc2ccc3cccc4ccc1c2c34 [Compound 15, N^1-(1-pyrenylsulfonyl)spermine]
[1]; [9]
  Ki: 0.091 µM

## CN(C)c1cccc2c(S(=O)(=O)NCCCNCCCCNCCCN)cccc12 [Compound 3, N^1-dansylspermine]
Cultured cells
  intracellular localization: localize specifically to the nucleoli and the nuclear membrane
Cultured cells; 1 μM, 10 minute incubation at 37° C.
  uptake of the fluorescent probe into cells: took up the labeled material
[2]; A172 cells
  displacement of 3H-spermidine in the transport assay: competitively displace
[1]; [9]
  Ki: 0.08 µM

## CN(C)c1cccc2c(S(=O)(=O)NCCCCCC(=O)NCCCNCCCCNCCCN)cccc12 [Compound 4, N^1-[(N^6-dansyl)-6-aminocaproyl]spermine]
[3]
  effectiveness against tumor cell lines in vitro: effective against all these tumor cell lines in vitro
[4]; DACS plus ODC inhibitor in the presence of polyamines, by day 3
  cell growth reduced: 69%
[4]; Homo sapiens, MDA-MB-231, with ODC inhibitor, 1.0 μM supplemented polyamines, read-out: IC50 for growth in combination with an ODC inhibitor
  IC50: 600 nM
[4]; alone, without ODC inhibitor
  concentration at which the compound alone becomes growth inhibitory: 300 µM
[4]; putrescine, spermidine, N1-acetylspermine and N1-acetylspermidine
  prevention of rescue from ODC inhibition by natural polyamines: prevents
[4]
  R: 400
[5]
  inhibition of SSAT enzymatic activity: inhibited spermidine/spermine acetyltransferase (SSAT) in a dose-related manner
[6]; putrescine uptake, read-out: Ki, putrescine uptake
  Ki: 5.4 nM
[6]; spermidine uptake, read-out: Ki, spermidine uptake
  Ki: 8 nM

## NCCCCNS(=O)(=O)c1ccc2ccccc2c1
[1]; [8]
  Ki: 5 µM

## NCCCNCCCCNCCCNC(=O)CCCCCNS(=O)(=O)c1ccc2oc3ccccc3c2c1 [Compound 6]
[4]
  R: 220

## CC1(C)C2CCC1(CS(=O)(=O)NCCCCN)C(=O)C2 (stereo not shown)
[1]; [8]
  Ki: > 30 µM

## NCCCCNS(=O)(=O)c1cccc2ccccc12
[1]; [8]
  Ki: > 30 µM

## NCCCCN(CCCN)CCCNC(=O)CCCc1ccc(N(CCCl)CCCl)cc1 [chlorambucil-spermidine conjugate]
Cancer cells
  fold increase in cytotoxicity compared to chlorambucil alone: ≤ 225 fold

## NCCCNCCCCNCCCNS(=O)(=O)c1cccc2ccccc12
[1]; [8]
  Ki: 0.19 µM

## NCCCNCCCCNCCCNS(=O)(=O)c1ccc2ccccc2c1
[1]; [8]
  Ki: 0.15 µM

## NCCCNCCCCNCCCNC(=O)CCCCCNS(=O)(=O)c1ccc(CNC(=O)c2ccc(Cl)cc2)s1 [Compound 5, N^1-[(N^6–5-(4-chlorobenzamidomethyl)-thiophene-2-sulfonyl)-6-aminocaproyl]spermine]
[4]
  R: 210

## NCCC[C@](N)(C(=O)O)C(F)F [DFMO, α-difluoromethylornithine]
[7]; DFMO mice transplanted with PAT-deficient L1210 cells
  survival: > 60 days
[7]; mice with wild-type L1210 cells (intact PAT), treated with DFMO
  time to death: 12 days
Neoplastic vessels
  reduction in neoplastic vessel count: 50%

## CN(C)CCCN1c2ccccc2CCc2ccccc21 [Compound 165, imipramine, reference compound]
[2]; A172 cell line
  inhibition of the PAT assay: inhibited the PAT assay
[2]; A172 cells, read-out: Ki, non-competitive inhibitor of PAT
  Ki: 41 nM
[1]; MDA cell line
  inhibition of the PAT assay: inhibited the PAT assay
[1]; MDA cells, read-out: Ki, non-competitive inhibitor of PAT
  Ki: 0.5 µM
[1]; cell line not stated at the place (Example XXII: A172 and MDA)
  inhibition of polyamine transport: inhibited polyamine transport
